Assay results: PubChem BioAssay AID1963849 (Molecular Pharmacology Branch, DTP, NCI, 2024)

System: 299254-011-R-J1-PDC complex spheroid viability
Assay: Anticancer human tumor 299254-011-R-J1-PDC patient-derived melanoma cell line growth inhibition [POLQ]
Settings: for IC50: curve of first compound; for viability, T/C: stronger effect = lower value
Outline: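 Patient-derived tumour cells were co-cultured with HUVEC and mesenchymal stem cells as multicellular spheroids at 37 °C. They were treated with POLQ inhibitors (novobiocin, ART-558, RP6685) alone or combined with other agents. Top concentrations were at or near clinical Cmax (otherwise 10 microM; SN-38 at 1 microM), decreasing in half-log steps.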

[1] = second compound 0.0316 µM, first compound 0.0316 µM
[2] = second compound 0.0316 µM, first compound 0.1 µM
[3] = second compound 0.0316 µM, first compound 0.316 µM
[4] = second compound 0.0316 µM, first compound 1 µM
[5] = second compound 0.0316 µM, first compound 3.16 µM
[6] = second compound 0.0316 µM, first compound 10 µM
[7] = second compound 0.1 µM, first compound 0.0316 µM
[8] = second compound 0.1 µM, first compound 0.1 µM
[9] = second compound 0.1 µM, first compound 0.316 µM
[10] = second compound 0.1 µM, first compound 1 µM
[11] = second compound 0.1 µM, first compound 3.16 µM
[12] = second compound 0.1 µM, first compound 10 µM
[13] = second compound 0.316 µM, first compound 0.0316 µM
[14] = second compound 0.316 µM, first compound 0.1 µM
[15] = second compound 0.316 µM, first compound 0.316 µM
[16] = second compound 0.316 µM, first compound 1 µM
[17] = second compound 0.316 µM, first compound 3.16 µM
[18] = second compound 0.316 µM, first compound 10 µM
[19] = second compound 1 µM, first compound 0.0316 µM
[20] = second compound 1 µM, first compound 0.1 µM
[21] = second compound 1 µM, first compound 0.316 µM
[22] = second compound 1 µM, first compound 1 µM
[23] = second compound 1 µM, first compound 3.16 µM
[24] = second compound 1 µM, first compound 10 µM
[25] = second compound 3.16 µM, first compound 0.0316 µM
[26] = second compound 3.16 µM, first compound 0.1 µM
[27] = second compound 3.16 µM, first compound 0.316 µM
[28] = second compound 3.16 µM, first compound 1 µM
[29] = second compound 3.16 µM, first compound 3.16 µM
[30] = second compound 3.16 µM, first compound 10 µM
[31] = second compound 10 µM, first compound 0.0316 µM
[32] = second compound 10 µM, first compound 0.1 µM
[33] = second compound 10 µM, first compound 0.316 µM
[34] = second compound 10 µM, first compound 1 µM
[35] = second compound 10 µM, first compound 3.16 µM
[36] = second compound 10 µM, first compound 10 µM
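Note: spheroids exposed to drugs for one week before measurement.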
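Throughout, for viability, T/C: percent viability relative to DMSO vehicle control taken as 100%.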

What does the source list for `Nc1ccn(C2OC(CO)C(O)C2(F)F)c(=O)n1` (stereo unspecified) + Nc1ccc(C#CCN(C(=O)Cc2ncc(C(F)(F)F)cc2C(F)(F)F)c2ccc(F)cc2)nn1?
IC50 (second compound 0.0316 µM): 0.123 µM; IC50 (second compound 0.1 µM): 0.351 µM; IC50 (second compound 0.316 µM): 0.0827 µM; IC50 (second compound 1 µM): 0.252 µM; IC50 (second compound 3.16 µM): 0.144 µM; IC50 (second compound 10 µM): 0.277 µM; viability, T/C [1]: 71.9%; viability, T/C [2]: 54.2%; viability, T/C [3]: 33.7%; viability, T/C [4]: 50.7%; viability, T/C [5]: 51.7%; viability, T/C [6]: 47.1%; viability, T/C [7]: 60.7%; viability, T/C [8]: 54.7%; viability, T/C [9]: 49.6%; viability, T/C [10]: 48.5%; viability, T/C [11]: 46%; viability, T/C [12]: 46.9%; viability, T/C [13]: 90%; viability, T/C [14]: 41.4%; viability, T/C [15]: 49.6%; viability, T/C [16]: 37.7%; viability, T/C [17]: 43.7%; viability, T/C [18]: 38.2%; viability, T/C [19]: 86.2%; viability, T/C [20]: 69.2%; viability, T/C [21]: 45.1%; viability, T/C [22]: 45.7%; viability, T/C [23]: 48%; viability, T/C [24]: 36.4%; viability, T/C [25]: 73.7%; viability, T/C [26]: 51.5%; viability, T/C [27]: 47%; viability, T/C [28]: 42.1%; viability, T/C [29]: 37.7%; viability, T/C [30]: 43.5%; viability, T/C [31]: 80%; viability, T/C [32]: 91.5%; viability, T/C [33]: 45.4%; viability, T/C [34]: 36.9%; viability, T/C [35]: 39.7%; viability, T/C [36]: 45%

`O=C(c1cc(Cc2n[nH]c(=O)c3ccccc23)ccc1F)N1CCN(C(=O)C2CC2)CC1` + Nc1ccc(C#CCN(C(=O)Cc2ncc(C(F)(F)F)cc2C(F)(F)F)c2ccc(F)cc2)nn1 was tested. Which IC50 (second compound 0.0316 µM) did it give?
The IC50 was > 10 µM.

What about the IC50 (second compound 0.1 µM) of the same compound?
Its IC50 is > 10 µM.

And the IC50 (second compound 0.316 µM)?
Its IC50 is > 10 µM.

What about the IC50 (second compound 1 µM) of the same compound?
The IC50 was > 10 µM.

What about the IC50 (second compound 3.16 µM) of the same compound?
Its IC50 is > 10 µM.

And the IC50 (second compound 10 µM)?
The IC50 was > 10 µM.

And the viability, T/C [1]?
The viability, T/C was 120%.

What about the viability, T/C [2] of the same compound?
Its viability, T/C is 96.6%.

And the viability, T/C [3]?
Its viability, T/C is 92.4%.

And the viability, T/C [4]?
Its viability, T/C is 91.7%.

And the viability, T/C [5]?
Its viability, T/C is 107%.

And the viability, T/C [6]?
The viability, T/C was 95.6%.

And the viability, T/C [7]?
Its viability, T/C is 94%.

And the viability, T/C [8]?
Its viability, T/C is 105%.

And the viability, T/C [9]?
The viability, T/C was 97.2%.

And the viability, T/C [10]?
The viability, T/C was 95.3%.

And the viability, T/C [11]?
The viability, T/C was 112%.

And the viability, T/C [12]?
The viability, T/C was 88%.

And the viability, T/C [13]?
Its viability, T/C is 111%.

What about the viability, T/C [14] of the same compound?
Its viability, T/C is 122%.

What about the viability, T/C [15] of the same compound?
The viability, T/C was 106%.

And the viability, T/C [16]?
The viability, T/C was 105%.

And the viability, T/C [17]?
The viability, T/C was 97.2%.

What about the viability, T/C [18] of the same compound?
The viability, T/C was 84.6%.

What about the viability, T/C [19] of the same compound?
The viability, T/C was 105%.

What about the viability, T/C [20] of the same compound?
The viability, T/C was 95.4%.

And the viability, T/C [21]?
The viability, T/C was 100%.

What about the viability, T/C [22] of the same compound?
Its viability, T/C is 110%.

What about the viability, T/C [23] of the same compound?
Its viability, T/C is 109%.

And the viability, T/C [24]?
Its viability, T/C is 85.3%.

What about the viability, T/C [25] of the same compound?
The viability, T/C was 103%.

And the viability, T/C [26]?
Its viability, T/C is 96.7%.

And the viability, T/C [27]?
Its viability, T/C is 94.8%.

And the viability, T/C [28]?
Its viability, T/C is 113%.

What about the viability, T/C [29] of the same compound?
The viability, T/C was 93.8%.

And the viability, T/C [30]?
Its viability, T/C is 71%.

And the viability, T/C [31]?
The viability, T/C was 89.1%.

What about the viability, T/C [32] of the same compound?
The viability, T/C was 98.5%.

What about the viability, T/C [33] of the same compound?
The viability, T/C was 113%.

What about the viability, T/C [34] of the same compound?
The viability, T/C was 88.8%.

What about the viability, T/C [35] of the same compound?
The viability, T/C was 99.4%.

And the viability, T/C [36]?
Its viability, T/C is 63.5%.

Which IC50 (second compound 0.0316 µM) does the source give for `C=CC(=O)N1CCN(c2nc(=O)n(-c3c(C)ccnc3C(C)C)c3nc(-c4c(O)cccc4F)c(F)cc23)C(C)C1` (stereo unspecified) + Cc1cccc(N(C)C(=O)C2C(O)CCN2c2nc(C)cc(C(F)(F)F)c2C#N)c1 here?
The IC50 was > 10 µM.

What about the IC50 (second compound 0.1 µM) of the same compound?
Its IC50 is > 10 µM.

What about the IC50 (second compound 0.316 µM) of the same compound?
Its IC50 is > 10 µM.

What about the IC50 (second compound 1 µM) of the same compound?
Its IC50 is > 10 µM.

And the IC50 (second compound 3.16 µM)?
The IC50 was > 10 µM.

And the IC50 (second compound 10 µM)?
Its IC50 is > 10 µM.

What about the viability, T/C [1] of the same compound?
The viability, T/C was 88.6%.

And the viability, T/C [2]?
The viability, T/C was 75.1%.

What about the viability, T/C [3] of the same compound?
The viability, T/C was 72.8%.

What about the viability, T/C [4] of the same compound?
Its viability, T/C is 67.8%.

What about the viability, T/C [5] of the same compound?
Its viability, T/C is 63.4%.

What about the viability, T/C [6] of the same compound?
The viability, T/C was 68.9%.

And the viability, T/C [7]?
Its viability, T/C is 85.2%.

What about the viability, T/C [8] of the same compound?
Its viability, T/C is 78.1%.

What about the viability, T/C [9] of the same compound?
The viability, T/C was 64%.

And the viability, T/C [10]?
The viability, T/C was 79.3%.

And the viability, T/C [11]?
The viability, T/C was 69.3%.

And the viability, T/C [12]?
The viability, T/C was 58.7%.

And the viability, T/C [13]?
Its viability, T/C is 99.5%.

And the viability, T/C [14]?
Its viability, T/C is 81.8%.

What about the viability, T/C [15] of the same compound?
Its viability, T/C is 88.3%.

What about the viability, T/C [16] of the same compound?
Its viability, T/C is 77.2%.

And the viability, T/C [17]?
The viability, T/C was 74.3%.

What about the viability, T/C [18] of the same compound?
Its viability, T/C is 64.4%.

And the viability, T/C [19]?
The viability, T/C was 88.4%.

And the viability, T/C [20]?
Its viability, T/C is 73.8%.

What about the viability, T/C [21] of the same compound?
Its viability, T/C is 63.5%.

What about the viability, T/C [22] of the same compound?
Its viability, T/C is 64.5%.

And the viability, T/C [23]?
Its viability, T/C is 82.2%.

What about the viability, T/C [24] of the same compound?
Its viability, T/C is 67.9%.

And the viability, T/C [25]?
Its viability, T/C is 84%.

And the viability, T/C [26]?
Its viability, T/C is 84.8%.

What about the viability, T/C [27] of the same compound?
Its viability, T/C is 66.4%.

And the viability, T/C [28]?
Its viability, T/C is 70.1%.

What about the viability, T/C [29] of the same compound?
Its viability, T/C is 66.1%.

What about the viability, T/C [30] of the same compound?
Its viability, T/C is 72.8%.

And the viability, T/C [31]?
The viability, T/C was 90.5%.

What about the viability, T/C [32] of the same compound?
Its viability, T/C is 72.7%.

And the viability, T/C [33]?
The viability, T/C was 56.4%.

And the viability, T/C [34]?
Its viability, T/C is 74%.

What about the viability, T/C [35] of the same compound?
Its viability, T/C is 74.9%.

What about the viability, T/C [36] of the same compound?
The viability, T/C was 75.2%.
